Test results: the METLIN SMRT retention time set (Domingo-Almenara et al. 2019)

Test: gradient 5% acetonitrile 3 min, to 50% in 2 min, to 85% in 15 min, held 3 min, 100 µL/min
Conditions: column: Zorbax Extend-C18 2.1 x 50 mm; eluents: water / acetonitrile, 0.1% formic acid
Summary of the method: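 Pure standards were run in mixtures of ~100 molecules by HPLC coupled to a quadrupole time-of-flight mass spectrometer. The column was a Zorbax Extend-C18 (2.1 × 50 mm, 1.8 μm) at 100 μL/min, with water and acetonitrile each containing 0.1% formic acid, in positive and negative ionization mode. Dead and dwell volumes were 40 μL and 900 μL. Retention time was taken from computationally picked adduct peaks, each manually inspected, with data collected over 3 months.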

RP-LC retention time [s]	Compound
900	c1cc(-c2noc(-c3cccc4[nH]ccc34)n2)cc(-c2ccn[nH]2)c1
674	Cc1nnsc1C(=O)N1CCC(CNC(=O)c2ccccc2C(F)(F)F)CC1
1080	Cn1cccc1C(=O)C(=O)Nc1ccc(Cl)cc1F
797	Cc1cc(NC(=O)c2ccccc2)c(Cl)cc1N
941	Cn1cc(C(=O)N2CC(Oc3ccc(-c4nc(-c5ccccc5)no4)cc3)C2)cn1
814	Fc1cccc(-c2noc(-c3ccc(N4CCN(C5CCCCC5)CC4)nc3)n2)c1
924	CCn1nccc1-c1cccc(-c2noc(-c3cccc(NC(C)=O)c3)n2)c1
884	Cc1ccc(NC(=O)Cn2nc(N3CCOCC3)c3ccccc3c2=O)c(Br)c1
588	O[C@@H]1C[C@@H](c2nnc3n2CCN(Cc2cccc(F)c2)C3)N(Cc2cccnc2)C1
592	CCOC(=O)Cc1csc(NS(=O)(=O)c2cn(C)nc2C)n1
997	O=C(Cn1cccc1-c1nnc(-c2ccccc2)o1)Nc1ccc(F)c(F)c1
1260	COc1cc(-c2noc(-c3nc(-c4ccc(C)cc4)no3)n2)cc(OC)c1OC
741	CCN1CCn2c(nc3cc(C(=O)NCc4ccc(C(F)(F)F)cc4)ccc32)C1=O
1070	Cc1ccc(-c2csc(Cc3nc(-c4ccc(F)cc4)no3)n2)c(C)c1
558	O=C(CCN1C(=O)C2CC=CCC2C1=O)N1CCN(c2ccccn2)CC1 (stereo not given)
893	COCCn1cc(CCNC(=O)Nc2cc(Cl)cc(Cl)c2)c2cccnc21
897	CCCn1ccc2sc(C)c(C(=O)NC3CCCCCC3)c2c1=O
1200	CCOc1ccc(NC(=O)Cc2c(C)nn(-c3nc(-c4ccc(F)cc4)cs3)c2C)cc1
635	CC1CCN(CCNC(=O)c2nc(CCS(=O)(=O)c3ccccc3)no2)CC1
601	COc1cccc(CN2CCC(N3C(=O)C4(CCCCC4)C3c3ccncc3)CC2)c1OC (stereo not given)
708	O=C(c1cn(-c2cc(-c3nc(C4CC4)no3)ccn2)cn1)N1CCOCC1
721	CC1CCN(c2ncc3c(n2)CCC(C(=O)Nc2ccc(N4CCOCC4)cc2)C3)CC1 (stereo not given)
644	CCn1nccc1C(=O)Nc1ccc2c(c1)CCC(=O)N2C

RP-LC retention time [s]	Compound
612	CCOC(=O)c1noc2nc(C)nc(Nc3ccc(CN4CCN(CC)CC4)cc3)c12
844	O=C(c1cccs1)N1CCC2(CC1)N=C(c1ccc(Cl)cc1)NO2
560	Cc1c(C(=O)NCc2cccnc2)oc2c1C(=O)CC(C)(C)C2
713	CC(C)NC(=O)c1nnn(-c2ccccc2)c1-c1cccnc1
978	CCCn1cc(CCNS(=O)(=O)c2cc(C)c(C)cc2C)c2cccnc21
674	Cc1ccc2c(C(=O)NCc3ccccc3Cl)cc(NC(=O)C(C)C)cc2n1
943	Cc1ccc(CNS(=O)(=O)c2cc3c(s2)CCN(C(=O)C2CCC2)C3)cc1
850	CC1=C(c2ccc(Cl)cc2)S(=O)(=O)N=C1N1CCCN(C(=O)C2CCC2)CC1
662	Cc1cc(=O)n(CC(=O)NCc2ccccc2Cl)c(N2CCOCC2)n1
860	O=c1c(S(=O)(=O)N2CCCC2)cccn1Cc1ccccc1Cl
917	CCOc1ccc(-c2noc(CN3N=NC4C(=O)N(c5cccc(OC)c5)C(=O)C43)n2)cc1OC (stereo not given)
801	COc1cccc(NS(=O)(=O)c2cc3c(s2)CCN(C(=O)C2CC2)C3)c1
735	CC(=O)Oc1cccc(C2C3=C(CC(C)(C)CC3=O)Nc3ccccc3N2C(C)=O)c1 (stereo not given)
610	CN(C)c1ccc(CNC(=O)c2cc3n(n2)CC(C)(C(=O)NCc2ccc(F)cc2)N(C)C3=O)cc1 (stereo not given)
804	CC(NC(=O)c1cccc(NC(=O)c2ccco2)c1)C(=O)N1CCCc2ccccc21 (stereo not given)
1070	CCOc1ccc(CNC(=O)C2CCCN(c3nccnc3Oc3ccc(C)cc3)C2)cc1OCC (stereo not given)
893	CCOC(=O)c1nc(N2CCN(c3ccccc3)CC2)c2ccccc2n1
650	O=C(C1CC(=O)N(c2ccc(F)cc2)C1)N1CC(c2nc(-c3ccccn3)no2)C1 (stereo not given)
1090	Cc1ccccc1NC(=O)C(C)n1nc(C)c2nn(-c3ccccc3)c(-n3cccc3)c2c1=O (stereo not given)
1280	COc1ccc(-c2csc(NC(=O)Nc3ccc(Cl)c(Cl)c3)n2)cc1Br
675	Cc1nc(-c2ccc(C(=O)N3CCCC3)cc2)no1
649	CC1(C)C(=O)NCCN1C(=O)c1cccc(Br)c1
686	CCOCCCNC(=O)c1ccc2c(c1)NC(=O)C1CCCCN21 (stereo not given)

RP-LC retention time [s]	Compound
1030	Cc1ccc(S(=O)(=O)N2CCOCC2)cc1-c1nnc(-c2ccc(Cl)cc2)o1
971	COc1ccc(-c2noc(CN3C(=O)COc4cc(Cl)ccc43)n2)cc1OC
811	O=C(NCc1noc(C2CCCC2)n1)C1CCCCC1
554	Cc1noc(C2CN(Cc3cc(Br)ccc3F)C2)n1
613	CCS(=O)(=O)N1CCCN(C(=O)NC(C)C)CC1
715	CC1CCN(Cc2csc(N3CCN(C(=O)CCCc4ccccc4)CC3)n2)CC1
861	CCn1cnc(S(=O)(=O)N2CCCC(C(=O)Nc3ccc(C)c(Cl)c3)C2)c1 (stereo not given)
589	Cc1nc(NC(=O)c2ccc(-n3ccnc3)nn2)sc1C
748	COC(=O)c1ccccc1S(=O)(=O)Nc1ccc2c(c1)CCC(=O)N2C
597	CC(C)N1CCN(C(=O)c2sc3ncccc3c2-n2cccc2)CC1
860	CC(=O)N(Cc1nn(C)c2c1CN(S(=O)(=O)c1ccc(F)c(Cl)c1)CC2)c1ccccc1
673	O=S(=O)(NC1CCCCC1)c1ccc2c(c1)-c1oncc1CO2
966	COc1ccc(C(=O)Nc2nnc(SCc3nnc(-c4ccccc4C)o3)s2)cc1
1120	Cc1cc(=O)n(CC(=O)Nc2ccc(F)cc2)c(-c2ccc(Cl)cc2)n1
1040	CCOc1ccccc1C(=O)n1nc(C)c(S(=O)(=O)N2CCCC2)c1C
1100	O=C1N(c2cccc(Cl)c2)c2ncccc2S(=O)(=O)N1Cc1ccccc1
604	CCN1CCN(CCNC(=O)c2cc(=O)n3c(nc4ccccc43)s2)CC1
939	CCc1noc(C2CCCCN2Cc2cc(F)ccc2F)n1 (stereo not given)
904	COC(=O)c1ccc(CSc2nnc(NC(=O)c3nc4ccccc4s3)s2)o1
567	Cc1ccnc(N2CCC(C(=O)NCc3ccc(CN4CCCCCC4)o3)CC2)n1
1040	O=S(=O)(Cc1ccccc1)N1CCC(OCCOCc2ccccc2)CC1
919	C[C@@H]1c2ccccc2CCN1C(=O)c1ccccc1F
1240	CCCCOc1ccc(-c2nc(C3CC(=O)N(c4ccc(F)cc4)C3)no2)cc1 (stereo not given)

RP-LC retention time [s]	Compound
910	O=C(C1CCCCC1)N1CCN(c2cc(-c3ccc(Cl)cc3)[nH]n2)CC1
760	CC(C)(C)C(=O)N1CCN(c2ncccc2-c2nnc(C3CC3)o2)CC1
613	COc1ccc(C2(C(=O)N3CC(N(Cc4ccncc4)S(C)(=O)=O)C3)CC2)cc1
630	CC1CN=C2C=C(N3CCN(C(=O)Nc4ccc(Cl)cc4F)CC3)N=CN21 (stereo not given)
782	Cc1cc(=O)oc2cc(OS(C)(=O)=O)ccc12
804	O=C(Cn1c(=O)oc2ccc(C(=O)N3CCCCC3)cc21)N1CCc2ccccc2C1
674	O=C(CC1CCCC1)NCc1cccnc1-c1ccc(F)cc1
966	O=C(C1CCCN(S(=O)(=O)c2cc(-c3noc(C4CCCC4)n3)cs2)C1)N1CCOCC1 (stereo not given)
942	Cc1nc(Cn2cccc2C(=O)NCc2ccc(Br)cc2)no1
597	COc1ccc(-c2nc3cc(C)ccn3c2NC(=O)c2ccc(F)cc2)cc1OC
907	CCS(=O)(=O)c1nc2ccc(NS(=O)(=O)c3ccc(OC)c(Cl)c3)cc2s1
715	Cn1nnc2cc(CNC(=O)c3cccc(Cl)c3)ccc21
725	COc1ccc(OC)c(NC(=O)COc2nc(C)nc3ccccc23)c1
872	CCn1c(CCC(=O)NCc2ccc(F)cc2F)nc2c(C)cccc2c1=O
740	Cc1nc(-c2cccnc2)nc2c1CCC(=O)N2Cc1cccs1
682	CC(C)n1cnc(S(=O)(=O)N2CCCC(C(=O)N3CCN(c4ncccn4)CC3)C2)c1 (stereo not given)
880	CCn1nnc2cc(-c3noc(C4CC(=O)N(c5ccc(C)cc5)C4)n3)ccc21 (stereo not given)
964	CC1CCN(c2cc(-n3cnc(C(=O)NCc4ccc5c(c4)OCO5)c3)ncn2)CC1
620	Nc1cc(C2CCN(C(=O)c3cncc(Br)c3)CC2)no1
813	COc1ccc(NC(=O)c2nc3nc(C)cc(C(F)F)n3n2)cc1Cl

Compound	RP-LC retention time [s]
COc1cccc(Cn2nnc(C(=O)O)c2-c2cccc(OC)c2)c1	782
